Reference: patent publication US11096991B2, “Nanoreactor using polyion complex polymersomes, and method for producing same” (THE UNIVERSITY OF TOKYO, priority 2015, dated 2021)

Assays:
[1] = tested on: α-galactosidase (α-GAL), encapsulated in PICsome; experiment: Enzyme activity of α-GAL encapsulated in PICsome, Michaelis-Menten/Lineweaver-Burk plot with Gal-AMC; format: biochemical; details: substrate Gal-AMC, PBS, 37° C., AMC fluorescence Ex/Em=350 nm/450 nm
Protocol: In the same manner as in Section 5 of Example 1, a solution containing empty PICsomes was prepared. Thereafter, 11.4 mg of α-galactosidase (hereinafter referred to as “α-GAL”) was dissolved in 5.7 mL of a 10 mM phosphate buffer (PB, pH 7.4, 0 mM NaCl) to prepare a 2 mg/mL α-GAL solution.
An aliquot (1 mL) was taken from the 2 mg/mL α-GAL solution and mixed with 1 mL of the solution containing empty PICsomes. The solution mixture was stirred by a Vortex mixer for 2 minutes (2000 rpm). Thereafter, to the solution, a PB solution (5.6 mL) containing a water soluble condensing agent, EDC (10 mg/mL) was added. The mixture was allowed to stand still overnight to crosslink a polyion complex. […] A solution of fluorescence labeled α-GAL was prepared in the same manner as above.
Enzyme activity was evaluated with respect to free α-GAL and encapsulated α-GAL, respectively. […] Gal-AMC is decomposed by the enzyme activity of α-GAL to produce 7-amino-4-methyl coumarin (also referred to as “AMC”), which emits fluorescence (Ex/Em=350 nm/450 nm).
More specifically, first, PBS solutions of Gal-AMC, free α-GAL, and encapsulated α-GAL were each placed in a thermostatic chamber and allowed to stand still at 37° C. […] The plate was placed in a multiplate reader kept at 37° C. in advance and fluorescence intensity was measured periodically for a predetermined time. […]

[2] = tested on: α-galactosidase (α-GAL), free (unencapsulated); experiment: Enzyme activity of free α-GAL, Michaelis-Menten/Lineweaver-Burk plot with Gal-AMC; format: biochemical; details: substrate Gal-AMC, PBS, 37° C., AMC fluorescence Ex/Em=350 nm/450 nm
Protocol: Enzyme activity was evaluated with respect to free α-GAL and encapsulated α-GAL, respectively. The enzyme activity of α-GAL was checked by the reaction with a substrate, α-galactosyl-β-(7-amide-4-methyl coumarin) (also referred to as “Gal-AMC”) as shown in FIG. 19B. Gal-AMC is decomposed by the enzyme activity of α-GAL to produce 7-amino-4-methyl coumarin (also referred to as “AMC”), which emits fluorescence (Ex/Em=350 nm/450 nm).
More specifically, first, PBS solutions of Gal-AMC, free α-GAL, and encapsulated α-GAL were each placed in a thermostatic chamber and allowed to stand still at 37° C. Thereafter, the Gal-AMC solution was mixed with the free α-GAL or encapsulated α-GAL solution. From the solution mixture, an aliquot (predetermined amount) was taken and immediately poured to a 96 well plate (TECAN). The plate was placed in a multiplate reader kept at 37° C. in advance and fluorescence intensity was measured periodically for a predetermined time.
The enzyme activity was evaluated by preparing the Michaelis-Menten plot and Lineweaver-Burk plot. At this time, using a calibration curve previously prepared by using an AMS standard solution, a change of fluorescence intensity was converted into the production rate of a product. In this manner, a reaction rate V was obtained. Measurement was performed by changing the substrate concentration [S] variously. […]

Km [1]: 190 µM | Km [2]: 180 µM
SMILES: Cc1cc(=O)oc2cc(N[C@H]3O[C@H](CO)[C@H](O)[C@H](O)[C@H]3O)ccc12 [Gal-AMC, α-galactosyl-β-(7-amide-4-methylcoumarin)]
